Columns and labels:
[1] = system: mixed neural culture of hippocampus cells exposed to kainate; assay type: cell-based, rat
[2] = system: permanent focal ischemia (occlusion of the middle cerebral artery); assay: in vivo permanent focal ischemia model in mice (MCAo), lesion volume by TTC colouring
[3] = system: organotypical slices of rat hippocampus (CA3 region); assay: in vitro complex excitotoxicity model: organotypical rat hippocampus culture exposed to kainate; conditions: 20 μM, 24 hours

Structure (SMILES) | amount necessary compared with (S)-roscovitine to prevent the death of the same number of neurones [1] | neuronal death percentage (RND) [1] [%] | neurones prevented from death compared with (R)-roscovitine [1] | reduction in the size of the penumbra zone compared with the control ([2]; ICV, 500 μM, 3 hours after occlusion) [%] | volume of the necrotic core ([2]; ICV, 500 μM, 3 hours after occlusion (control 6.06 mm3)) [mm3] | volume of the penumbra zone ([2]; ICV, 500 μM, 3 hours after occlusion (control 12.68 mm3)) [mm3] | total volume of the lesion ([2]; ICV, 500 μM, 3 hours after occlusion (control 18.74 mm3)) [mm3] | reduction in the total volume of the lesion compared with the control ([2]; intracerebroventricular (ICV), 500 μM by osmotic micropump from 48 hours before MCAo, 3 hours after occlusion) [%] | reduction in the size of the penumbra compared with the control ([2]; systemic (PI), 25 mg/kg intraperitoneal x2, 3 hours after occlusion) [%] | volume of the necrotic core ([2]; systemic (PI), 25 mg/kg intraperitoneal x2, 3 hours after occlusion (control 5.03 mm3)) [mm3] | volume of the penumbra zone ([2]; systemic (PI), 25 mg/kg intraperitoneal x2, 3 hours after occlusion (control 15.31 mm3)) [mm3] | total volume of the lesion ([2]; systemic (PI), 25 mg/kg intraperitoneal x2, 3 hours after occlusion (control 20.34 mm3)) [mm3] | reduction in the total volume of the lesion compared with the control ([2]; systemic (PI), 25 mg/kg, 2 intraperitoneal injections 15 minutes before and 1 hour after MCAo, 3 hours after occlusion) [%] | toxic effect on organotypical rat hippocampus cultures [3]
CC[C@H](CO)Nc1nc(NCc2ccccc2)c2ncn(C(C)C)c2n1 [(R)-roscovitine] | Three times more | 62 |  |  |  |  |  |  |  |  |  |  |  | 
CC[C@@H](CO)Nc1nc(NCc2ccccc2)c2ncn(C(C)C)c2n1 [(S)-roscovitine] |  |  | twice as many | 35.8 | 5.39 | 8.14 | 13.54 | 27.7 | 38.9 | 4.88 | 9.22 | 14.10 | 30.7 | absence of toxic effect
